Test results: US20080033026A1, “Antimicrobial compositions, methods and systems” (priority 2006, published 2008)

Key:
Assay in all cases: Time-kill determination
Type in all cases: cell-based
[1] = tested on: Klebsiella pneumoniae (ATCC 4352)
Protocol: (§1) The assessment of efficacy of 9-decenoic acid against a spectrum of microorganisms was determined using the American Society for Testing and Materials (ASTM) procedure entitled “Standard Test Method for the Assessment of Microbiocidal Activity of Test Materials Using a Time-Kill Procedure,” October 1998. This procedure incorporates the recommendations described in the “Manual of Clinical Microbiology,” 5th ed., edited by A. B. Balows et al., ASM, Washington, and is directed by the Federal Register, June 1994.
(§2) Challenge organisms were prepared as follows. Cultures of the following organisms were obtained: Staphylococcus aureus (ATCC 6538), Pseudomonas aeruginosa (ATCC 15442), Staphylococcus epidermidis (ATCC 12228), Klebsiella pneumoniae (ATCC 4352), Escherichia coli 0157:H7 (ATCC 43895) and Candida albicans (ATCC 10231). The stock cultures were transferred to sterile tubes and sterile tryptic soy broth (TSB) was added to the cultures. The mixture was incubated for 18-24 hours at 37° C. (±2° C.). A portion of this culture was then transferred onto TSA plates and incubated for 18-24 hours at 37° C. (±2° C.). The plates were removed from incubation and the bacterial growth was washed from the agar surface using Butterfield's Phosphate Buffered Dilution Water (PBDW).
(§3) The bacterial suspension was adjusted to contain approximately 10^8 Colony Forming Units (CFU) per ml with PBDW. The concentration was adjusted to an optical density (OD) of 0.4-0.5 (versus a PBDW blank) at 620 nm in a UV-Vis spectrophotometer, and this optical density gave approximately 10^8 colony forming units per milliliter (cfu/ml). The standardized suspension was stored under appropriate conditions until it was used as the challenge inoculum.
(§4) Concentrated 9-decenoic acid (97%) was diluted in filter sterilized isopropanol to yield a 25,000 ppm stock solution. Subsequent dilutions to the 9-decenoic acid stock solutions were made with sterile Deionized Water (DI) to achieve concentrations of 0.1%, 0.05%, 0.01% and 0.001%. The pH was determined for each dilution; pH values ranged from 4.4-4.1. Additionally, 9-decenoic acid stock solution was adjusted to pH 7 with 1 N NaOH and serially diluted with sterile DI to achieve concentrations of 1%, 0.5%, 0.2%, 0.1%, 0.05% and 0.0025%. In addition, 9-decenoic acid stock solution was combined with Triclosan™ (obtained from Ciba Specialty Chemical Corporation, under the tradename Irgasan DP 300™) in various ratios, as indicated in Table 8. The pH of the combined solution was 7.
(§5) Compliant with the ASTM procedure cited, for each challenge microorganism a 9.9 ml aliquot of the prepared 9-decenoic acid suspension was added to a sterile tube. A 0.1 ml aliquot of the standardized inoculum was added to the 9-decenoic acid solution representing the start of the test exposure. The inoculated 9-decenoic acid solution was immediately mixed thoroughly. The inoculated suspension was held at room temperature for 0.5, 2, 5, 7 and 10-minute exposure times for tests run at pH level of approximately 4. The pH 7 tests were held at room temperature for 0.5 and 2 minutes.
(§6) At each exposure sample time, a 1.0 ml aliquot of the inoculated 9-decenoic acid suspension was transferred to 9.0 ml of D/E Neutralizing Broth. Additional ten-fold serial dilutions were made in PBDW and plated in duplicate on TSA. All plates were incubated for 48 hours at 37° C. (±2° C.) and visually examined for growth. The plates were enumerated, recorded and log kill determined for each time point.
(§7) The following study controls were conducted: culture purity, neutralizer sterility, initial suspension population, test population, neutralization verification and a negative control using isopropanol. Culture purity was verified by performing a streak plate for isolated colonies of each culture used. All cultures were determined to be pure based on consistent colony morphology typical for the test organism. The neutralizer sterility was confirmed by no growth in an incubated sample. […]

[2] = tested on: Candida albicans (ATCC 10231)
Protocol: as §1, §2, §3, §4, §5, §6, §7

[3] = tested on: Staphylococcus epidermidis (ATCC 12228)
Protocol: as §1, §2, §3, §4, §5, §6, §7

[4] = tested on: Pseudomonas aeruginosa (ATCC 15442)
Protocol: as §1, §2, §3, §4, §5, §6, §7

[5] = 0.01% 9-decenoic acid, pH 4.4, exposure 0.5 min
[6] = 0.01% 9-decenoic acid, pH 4.4, exposure 2 min
[7] = 0.01% 9-decenoic acid, pH 4.4, exposure 5 min
[8] = 0.01% 9-decenoic acid, pH 4.4, exposure 7 min
[9] = 0.01% 9-decenoic acid, pH 4.4, exposure 10 min
[10] = 0.05% 9-decenoic acid, pH 4.1, exposure 0.5 min
[11] = 0.05% 9-decenoic acid, pH 4.1, exposure 2 min
[12] = 0.05% 9-decenoic acid, pH 4.1, exposure 5 min
[13] = 0.05% 9-decenoic acid, pH 4.1, exposure 7 min
[14] = 0.05% 9-decenoic acid, pH 4.1, exposure 10 min
[15] = 0.1% 9-decenoic acid, pH 4.1, exposure 0.5 min
[16] = 0.1% 9-decenoic acid, pH 4.1, exposure 2 min
[17] = 0.1% 9-decenoic acid, pH 4.1, exposure 5 min
[18] = 0.1% 9-decenoic acid, pH 4.1, exposure 7 min
[19] = 0.1% 9-decenoic acid, pH 4.1, exposure 10 min

C=CCCCCCCCC(=O)O [9-decenoic acid]
Log reduction [1, 5]: 1.4 log
Log reduction [1, 6]: >6.3 log
Log reduction [1, 7]: >6.3 log
Log reduction [1, 8]: >6.3 log
Log reduction [1, 9]: >6.3 log
Log reduction [1, 10]: >6.3 log
Log reduction [1, 11]: >6.3 log
Log reduction [1, 12]: >6.3 log
Log reduction [1, 13]: >6.3 log
Log reduction [1, 14]: >6.3 log
Log reduction [1, 15]: >6.3 log
Log reduction [1, 16]: >6.3 log
Log reduction [1, 17]: >6.3 log
Log reduction [1, 18]: >6.3 log
Log reduction [1, 19]: >6.3 log
Log reduction [2, 5]: 1.0 log
Log reduction [2, 6]: 2.9 log
Log reduction [2, 7]: >6.7 log
Log reduction [2, 8]: >6.7 log
Log reduction [2, 9]: >6.7 log
Log reduction [2, 10]: >6.7 log
Log reduction [2, 11]: >6.7 log
Log reduction [2, 12]: >6.7 log
Log reduction [2, 13]: >6.7 log
Log reduction [2, 14]: >6.7 log
Log reduction [2, 15]: >6.7 log
Log reduction [2, 16]: >6.7 log
Log reduction [2, 17]: >6.7 log
Log reduction [2, 18]: >6.7 log
Log reduction [2, 19]: >6.7 log
Log reduction [3, 5]: >5.7 log
Log reduction [3, 6]: >5.7 log
Log reduction [3, 7]: >5.7 log
Log reduction [3, 8]: >5.7 log
Log reduction [3, 9]: >5.7 log
Log reduction [3, 10]: >5.7 log
Log reduction [3, 11]: >5.7 log
Log reduction [3, 12]: >5.7 log
Log reduction [3, 13]: >5.7 log
Log reduction [3, 14]: >5.7 log
Log reduction [3, 15]: >5.7 log
Log reduction [3, 16]: >5.7 log
Log reduction [3, 17]: >5.7 log
Log reduction [3, 18]: >5.7 log
Log reduction [3, 19]: >5.7 log
Log reduction [4, 5]: >6.1 log
Log reduction [4, 6]: >6.1 log
Log reduction [4, 7]: >6.1 log
Log reduction [4, 8]: >6.1 log
Log reduction [4, 9]: >6.1 log
Log reduction [4, 10]: >6.1 log
Log reduction [4, 11]: >6.1 log
Log reduction [4, 12]: >6.1 log
Log reduction [4, 13]: >6.1 log
Log reduction [4, 14]: >6.1 log
Log reduction [4, 15]: >6.1 log
Log reduction [4, 16]: >6.1 log
Log reduction [4, 17]: >6.1 log
Log reduction [4, 18]: >6.1 log
Log reduction [4, 19]: >6.1 log
